Where two headings read alike, the source gives them in different places.
How the values were obtained:
Type in all cases: cell-based
[1] = target: T1, NOR1 (Homo sapiens, UniProt Q92570); experiment: Gal4-NOR1 hybrid reporter gene assay in HEK293T cells; conditions: for Nor1 activity 10μM (mean fold activation) / Nor1 activity 30μM (mean fold activation): primary screen, n ≥ 2, ^# not significant vs VP16 control; for NOR1 min./max. activation: compared to 0.1% DMSO; for NOR1 activity in words or dash: dash = not reported as active versus VP16 control (p < 0.05)
T1 construct: NOR1 (isoform alpha; uniprot entry: hNOR1–Q92570-1, residues 393–626); expressed in transfected cells; host or cells: HEK293T
T1 sequence (Q92570 393-626): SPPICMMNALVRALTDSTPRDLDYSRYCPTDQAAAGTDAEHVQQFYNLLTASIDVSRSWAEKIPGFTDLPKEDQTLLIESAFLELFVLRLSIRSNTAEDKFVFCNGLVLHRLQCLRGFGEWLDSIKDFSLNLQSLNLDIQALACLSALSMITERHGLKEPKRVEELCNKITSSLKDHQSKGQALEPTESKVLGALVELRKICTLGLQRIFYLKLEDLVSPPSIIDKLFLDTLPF

[2] = target: T2, Nurr1 (Homo sapiens, UniProt P43354); experiment: Gal4-Nurr1 hybrid reporter gene assay in HEK293T cells; conditions: for Nurr1 activity 10μM (mean fold activation) / Nurr1 activity 30μM (mean fold activation): primary screen, n ≥ 2, ^# not significant vs VP16 control
T2 construct: Nurr1 (uniprot entry: hNURR1–P43354, residues 360–598); expressed in transfected cells; host or cells: HEK293T
T2 sequence (P43354 360-598): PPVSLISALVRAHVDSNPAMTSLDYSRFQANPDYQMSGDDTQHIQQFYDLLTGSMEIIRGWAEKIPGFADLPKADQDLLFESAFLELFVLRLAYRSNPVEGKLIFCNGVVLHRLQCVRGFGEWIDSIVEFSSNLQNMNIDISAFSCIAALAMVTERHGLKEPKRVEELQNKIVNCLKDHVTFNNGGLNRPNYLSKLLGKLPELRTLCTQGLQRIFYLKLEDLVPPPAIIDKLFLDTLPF

[3] = target: T3, Nur77 (Homo sapiens, UniProt P22736); experiment: Gal4-Nur77 hybrid reporter gene assay in HEK293T cells; conditions: for Nur77 activity 10μM (mean fold activation) / Nur77 activity 30μM (mean fold activation): primary screen, n ≥ 2, ^# not significant vs VP16 control; for IC50: HEK293T, n≥3; for IC50 / Nur77 min./max. activation: mean ± SD; for Nur77 min./max. activation: compared to 0.1% DMSO; for Nur77 activity in words or dash: dash = not reported as active versus VP16 control (p < 0.05)
T3 construct: Nur77 (uniprot entry: hNUR77–P22736, residues 358–598); expressed in transfected cells; host or cells: HEK293T
T3 sequence (P22736 358-598): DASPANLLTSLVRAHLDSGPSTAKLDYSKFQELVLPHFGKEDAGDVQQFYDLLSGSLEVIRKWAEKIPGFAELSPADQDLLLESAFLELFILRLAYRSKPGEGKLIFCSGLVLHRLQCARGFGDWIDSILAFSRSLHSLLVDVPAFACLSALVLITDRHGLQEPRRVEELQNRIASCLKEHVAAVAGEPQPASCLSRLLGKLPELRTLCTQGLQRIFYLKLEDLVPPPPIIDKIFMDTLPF

[4] = HEK293T, mean ± SD, n≥3, read-out: NOR1 IC50

Structure (SMILES)	Nor1 activity 10μM (mean fold activation) [1]	Nor1 activity 30μM (mean fold activation) [1]	Nurr1 activity 10μM (mean fold activation) [2]	Nurr1 activity 30μM (mean fold activation) [2]	Nur77 activity 10μM (mean fold activation) [3]	Nur77 activity 30μM (mean fold activation) [3]	IC50 [1, 4] [µM]	NOR1 min./max. activation ([1]; mean ± SD)	NOR1 activity in words or dash [1]	Nurr1 activity in words or dash ([2]; dash = not reported as active versus VP16 control (p < 0.05))	IC50 [3] [µM]	Nur77 min./max. activation [3]	Nur77 activity in words or dash [3]	IC50 [1] [µM]
CC(=O)Oc1ccccc1C(=O)O [acetylsalicylic acid]	1.03 fold	0.93 fold	1.02 fold	0.92 fold	0.98 fold	0.97 fold								
Nc1c(CC(=O)O)cccc1C(=O)c1ccc(Br)cc1 [bromfenac]	1.26 fold	1.09 fold	1.09 fold	1.12 fold	1.08 fold	1.03 fold								
CC(C(=O)O)c1ccc2c(c1)[nH]c1ccc(Cl)cc12 (stereo not shown) [carprofen]	1.17 fold	0.99 fold	1.10 fold	1.19 fold	1.08 fold	0.95 fold								
Cc1ccc(-c2cc(C(F)(F)F)nn2-c2ccc(S(N)(=O)=O)cc2)cc1 [celecoxib]	0.92 fold	toxic	0.93 fold	0.97 fold	0.75 fold	toxic								
O=C(O)Cc1ccccc1Nc1c(Cl)cccc1Cl [diclofenac]	1.11 fold	toxic	1.19 fold	toxic	0.94 fold	toxic								
CCc1cccc2c3c([nH]c12)C(CC)(CC(=O)O)OCC3 (stereo not shown) [etodolac]	0.95 fold	0.91 fold	1.06 fold	0.93 fold	0.85 fold	0.90 fold								
O=C(OCCOCCO)c1ccccc1Nc1cccc(C(F)(F)F)c1 [etofenamate]	1.07 fold	toxic	0.97 fold	toxic	0.84 fold	toxic								
CC(C(=O)O)c1cccc(Oc2ccccc2)c1 (stereo not shown) [fenoprofen]	1.01 fold	0.81 fold	1.00 fold	0.91 fold	0.99 fold	0.86 fold								
O=C(O)c1ccccc1Nc1cccc(C(F)(F)F)c1 [flufenamic acid]	1.36 fold	toxic	1.14 fold	toxic	0.99 fold	toxic								
Cc1c(Nc2ncccc2C(=O)O)cccc1C(F)(F)F [flunixin]	toxic	toxic	toxic	toxic	toxic	toxic								
CC(C(=O)O)c1ccc(-c2ccccc2)c(F)c1 (stereo not shown) [flurbiprofen]	0.98 fold	0.91 fold	1.25 fold	1.05 fold	0.93 fold	0.96 fold								
CC(C)Cc1ccc(C(C)C(=O)O)cc1 (stereo not shown) [ibuprofen]	0.95 fold	0.96 fold	1.02 fold	0.90 fold	0.99 fold	0.89 fold								
COc1ccc2c(c1)c(CC(=O)O)c(C)n2C(=O)c1ccc(Cl)cc1 [indometacin]	0.87 fold	toxic	0.96 fold	0.91 fold	0.83 fold	toxic								
Cc1cc(NC(=O)C2=C(O)c3ccccc3S(=O)(=O)N2C)no1 [isoxicam]	1.02 fold	0.87 fold	0.98 fold	0.90 fold	0.96 fold	0.80 fold								
CC(C(=O)O)c1cccc(C(=O)c2ccccc2)c1 (stereo not shown) [ketoprofen]	1.10 fold	0.96 fold	1.00 fold	0.94 fold	1.04 fold	0.88 fold								
CN1C(C(=O)Nc2ccccn2)=C(O)c2sc(Cl)cc2S1(=O)=O [lornoxicam]	0.92 fold	0.73 fold	0.93 fold	0.86 fold	0.86 fold	0.64 fold	24 ± 3	0.62 ± 0.02	inverse agonism	without affecting Nurr1 activity	9.4 ± 6.3	0.63 ± 0.09	inverse agonism	
Cc1cccc(Nc2ccccc2C(=O)O)c1C [mefenamic acid]	0.95 fold	toxic	0.90 fold	0.86 fold	0.80 fold	toxic								
Cc1cnc(NC(=O)C2=C(O)c3ccccc3S(=O)(=O)N2C)s1 [meloxicam]								0.1 ± 0.1				0.23 ± 0.02		84 ± 17
COc1ccc(-c2noc(CC(=O)O)c2-c2ccc(OC)cc2)cc1 [mofezolac]	1.00 fold	0.78 fold	0.94 fold	0.94 fold	0.98 fold	0.69 fold	33 ± 5	0.32 ± 0.10	inverse agonism		30 ± 1	0.38 ± 0.02	inverse agonism	
COc1ccc2cc(CCC(C)=O)ccc2c1 [nabumeton]	1.69 fold	1.74 fold	1.44 fold	1.46 fold	1.57 fold	1.44 fold								
COc1ccc2cc([C@H](C)C(=O)O)ccc2c1 [naproxen]	1.09 fold	1.09 fold	1.14 fold	1.15 fold	0.99 fold	1.07 fold								
NC(=O)Cc1cccc(C(=O)c2ccccc2)c1N [nepafenac]	1.09 fold	1.23 fold	1.02 fold	0.92 fold	0.98 fold	0.97 fold								
CS(=O)(=O)Nc1ccc([N+](=O)[O-])cc1Oc1ccccc1 [nimesulid]	0.91 fold	0.84 fold	1.00 fold	0.89 fold	0.90 fold	toxic								
CCCCC1C(=O)N(c2ccccc2)N(c2ccccc2)C1=O [phenylbutazone]	0.94 fold	1.02 fold	0.94 fold	1.04 fold	0.83 fold	0.81 fold								

— paper PMC9814838, “The orphan nuclear receptor Nurr1 is responsive to non-steroidal anti-inflammatory drugs” (Communications Chemistry, 2020)
